Test results as given in US20050227994A1, “Decomposition inhibitor for extracellular matrix of cartilage” (Shionogi & Co., Ltd., priority 2002, published 2005).
Like-named read-outs stand apart in the source and are kept apart here.

Biological target: T1, MMP-13 (Homo sapiens, UniProt P45452)
T1 construct: catalytic domain (^104Tyr˜^267Gly) was amplified with RT-PCR; His-tag; enterokinase digestion-site; made in house
Test: Assay for inhibitory activities on MMP-13
Assay type: biochemical
Protocol: In regard to MMP-13, mRNA was prepared from carcinoma cell SW1353 derived from human cartilage stimulate by IL-1, TNF and catalytic domain (^[…]) was amplified with RT-PCR. This was cloned in Escherichia. coli expression vector […] inserted with His-tag sequence and enterokinase digestion-site, induced and expressed by IPTG (Isopropyl-β-D-thiogalactopyranoside) and expressed in a insoluble fraction. Isolation of MMP-13 from an insoluble fraction was carried out by dissolving in modifier (6M urea) by a usual method and purification with metal chelate chromatography (Ni […] Sepharose). […] The enzymatic activity on MMP was analyzed by the method described in “C. Graham Knight, Frances Willenbrock and Gillian Murphy: A novel coumarin-labelled peptide for sensitive continuous assays of the matrix metalloproteinases: […] The substrate: MOCAc-[…] was purchased from Peptide Institute, Inc., Osaka, Japan.

[1] = catalytic domain, substrate MOCAc-Pro-Leu-Gly-Leu-A2Pr(DNP)-Ala-Arg-NH2, read-out: MMP-13 (IC50μM)

Row | SMILES | IC50 [1] [µM] | IC50 [µM]
1 | O=C(O)[C@@H](Cc1c[nH]c2ccccc12)NS(=O)(=O)c1ccc(-c2ccc(F)cc2)cc1 [Compound E-27] | 0.036 | –
2 | C[C@@H](NS(=O)(=O)c1ccc(-c2ccc(-c3ccc4ccccc4c3)cc2)cc1)C(=O)O [Compound E-28] | 0.012 | –
3 | O=C(O)[C@@H](Cc1ccccc1)NS(=O)(=O)c1ccc(-c2ccc(C#Cc3ccc4ccccc4c3)cc2)cc1 [Compound E-29] | – | 0.00992
4 | CSc1ccc(-c2ccc(S(=O)(=O)NC(Cc3ccccc3)C(=O)O)cc2)cc1 (stereo not shown) [Compound E-30] | 0.0026 | –
5 | COc1ccc(-c2ccc(S(=O)(=O)NC(C(=O)O)C(C)C)s2)cc1 (stereo not shown) [Compound F-2] | 0.53 | –
6 | CSCC[C@@H](NS(=O)(=O)c1ccc(-c2ccc(SC)cc2)s1)C(=O)O [Compound F-3] | 0.007 | –
7 | CSc1ccc(-c2ccc(S(=O)(=O)NC(CC(C)C)C(=O)O)s2)cc1 (stereo not shown) [Compound F-4] | 0.0094 | –
8 | CCOc1ccc(-c2ccc(S(=O)(=O)NC(CC(C)C)C(=O)O)s2)cc1 (stereo not shown) [Compound F-5] | 0.0183 | –
9 | COc1ccc(-c2ccc(S(=O)(=O)N[C@H](CCSC)C(=O)O)s2)cc1 [Compound F-6] | 0.0376 | –
10 | O=C(O)[C@H](Cc1c[nH]c2ccccc12)NS(=O)(=O)c1ccc(-c2ccc(N3CCCC3)cc2)s1 [Compound F-7] | 0.043 | –
11 | COc1ccc(-c2ccc(S(=O)(=O)N[C@H](Cc3c[nH]c4ccccc34)C(=O)O)s2)cc1 [Compound F-9] | 0.0036 | –
12 | Cc1ccc(-c2ccc(S(=O)(=O)N[C@H](Cc3c[nH]c4ccccc34)C(=O)O)s2)cc1 [Compound F-10] | 0.21 | –
13 | CN(C)c1ccc(-c2ccc(S(=O)(=O)N[C@H](Cc3c[nH]c4ccccc34)C(=O)O)s2)cc1 [Compound F-11] | 0.00047 | –
14 | CNc1ccc(-c2ccc(S(=O)(=O)N[C@H](Cc3ccccc3)C(=O)O)s2)cc1 [Compound F-12] | 0.0318 | –
15 | O=C(O)CNS(=O)(=O)c1ccc(-c2ccc(N3CCCC3)cc2)s1 [Compound F-13] | 0.033 | –
16 | O=C(O)[C@@H](Cc1ccccc1)NS(=O)(=O)c1ccc(-c2ccc(-n3cccc3)cc2)s1 [Compound F-14] | 0.0104 | –
17 | C[C@@H](NS(=O)(=O)c1ccc(-c2ccc(-n3cccc3)cc2)s1)C(=O)O [Compound F-15] | 0.023 | –
18 | CC(C)C[C@@H](NS(=O)(=O)c1ccc(-c2ccc(N3CCCCC3)cc2)s1)C(=O)O [Compound F-16] | 0.25 | –
19 | O=C(O)[C@H](NS(=O)(=O)c1ccc(-c2ccc(N3CCCC3)cc2)s1)c1ccc(O)cc1 [Compound F-17] | 0.0037 | –
20 | CC(C)[C@H](NS(=O)(=O)c1ccc(-c2ccc(N3CCCC3)cc2)s1)C(=O)O [Compound F-18] | 0.032 | –
21 | Cc1ccc(-c2ccc(S(=O)(=O)N[C@@H](Cc3c[nH]c4ccccc34)C(=O)O)s2)cc1 [Compound F-19] | 0.63 | –
22 | Cc1ccc(-c2ccc(S(=O)(=O)NC(C(=O)O)C(C)C)s2)cc1 (stereo not shown) [Compound F-20] | 0.811 | –
23 | CNc1ccc(-c2ccc(S(=O)(=O)NC(C(=O)O)C(C)C)s2)cc1 (stereo not shown) [Compound F-21] | 1.26 | –
24 | CNc1ccc(-c2ccc(S(=O)(=O)N[C@@H](Cc3ccccc3)C(=O)O)s2)cc1 [Compound F-22] | 0.854 | –

Row | SMILES | IC50 [1] [µM] | IC50 [µM]
25 | CSc1ccc(-c2ccc(S(=O)(=O)NC(Cc3ccccc3)C(=O)O)s2)cc1 (stereo not shown) [Compound F-24] | 0.0831 | –
26 | CSCC[C@H](NS(=O)(=O)c1ccc(-c2ccc(C(C)=O)cc2)s1)C(=O)O [Compound F-25] | 0.106 | –
27 | C=Cc1ccc(-c2ccc(S(=O)(=O)N[C@@H](C(=O)O)C(C)C)s2)cc1 [Compound F-26] | 0.0101 | –
28 | CC(=O)Oc1ccc(C#Cc2ccc(S(=O)(=O)N[C@H](Cc3c[nH]c4ccccc34)C(=O)O)cc2)cc1 [Compound G-1] | 0.046 | –
29 | C#Cc1ccc(C#Cc2ccc(S(=O)(=O)N[C@H](Cc3c[nH]c4ccccc34)C(=O)O)cc2)cc1 [Compound G-2] | 0.015 | –
30 | CC(C)[C@@H](NS(=O)(=O)c1ccc(C#Cc2ccc(O)cc2)cc1)C(=O)O [Compound G-3] | > 10 | –
31 | Cc1ccc(C#Cc2ccc(S(=O)(=O)N[C@H](Cc3ccccc3)C(=O)O)cc2[N+](=O)[O-])cc1 [Compound G-4] | > 10 | –
32 | O=C(O)[C@@H](Cc1ccccc1)NS(=O)(=O)c1ccc(C#Cc2ccc3ccccc3c2)cc1 [Compound G-5] | > 10 | –
33 | O=C(O)[C@H](Cc1c[nH]c2ccccc12)NS(=O)(=O)c1ccc(C#Cc2ccc3ccccc3c2)cc1 [Compound G-6] | 0.893 | –
34 | O=C(O)[C@H](Cc1ccccc1)NS(=O)(=O)c1ccc(C#Cc2ccc3c(c2)OCO3)cc1 [Compound G-9] | 0.0366 | –
35 | O=C(O)[C@H](CO)NS(=O)(=O)c1ccc(C#Cc2ccc3c(c2)OCO3)cc1 [Compound G-12] | 0.147 | –
36 | CC(C)C[C@@H](NS(=O)(=O)c1ccc(C#Cc2ccc3[nH]c(=O)sc3c2)cc1)C(=O)O [Compound G-15] | 1.09 | –
37 | O=C(O)[C@@H](Cc1ccccc1)NS(=O)(=O)c1ccc(C#Cc2ccc3c(c2)OCO3)s1 [Compound H-1] | 0.044 | –
38 | O=C(O)[C@@H](Cc1ccccc1)NS(=O)(=O)c1ccc(C#Cc2ccc3ccccc3c2)s1 [Compound H-2] | > 10 | –
39 | O=C(O)c1ccc(C#Cc2ccc(S(=O)(=O)N[C@H](Cc3ccccc3)C(=O)O)s2)cc1 [Compound H-3] | 6 | –
40 | Cc1ccc(C#Cc2ccc(S(=O)(=O)N[C@H](Cc3c[nH]c4cccc(O)c34)C(=O)O)s2)cc1 [Compound H-5] | 0.0328 | –
41 | Cc1ccc(C#Cc2ccc(S(=O)(=O)N[C@H](Cc3c[nH]c4c(O)cccc34)C(=O)O)s2)cc1 [Compound H-6] | 0.0113 | –
42 | O=C(O)[C@@H](Cc1ccccc1)NS(=O)(=O)c1ccc(C#Cc2cccc3ccccc23)s1 [Compound H-7] | > 10 | –
43 | Cc1ccc(C#Cc2ccc(S(=O)(=O)N[C@H](CCC(=O)O)C(=O)O)s2)cc1 [Compound H-8] | 0.151 | –
44 | O=C(O)[C@H](Cc1ccccc1)NS(=O)(=O)c1ccc(C#Cc2ccc3ccccc3c2)s1 [Compound H-9] | > 10 | –
45 | CC(C)C[C@@H](NS(=O)(=O)c1ccc(C#Cc2ccc3ccccc3c2)s1)C(=O)O [Compound H-10] | 1.37 | –
46 | C[C@@H](NS(=O)(=O)c1ccc(C#Cc2ccc(F)c(F)c2)s1)C(=O)O [Compound H-11] | 0.573 | –
47 | COc1ccc2cc(C#Cc3ccc(S(=O)(=O)N[C@H](Cc4ccccc4)C(=O)O)s3)ccc2c1 [Compound H-12] | 0.15 | –
48 | Cc1ccc(C#Cc2ccc(S(=O)(=O)N[C@H](Cc3ccccc3)C(=O)O)s2)cc1F [Compound H-13] | 0.0604 | –

Row | SMILES | IC50 [1] [µM] | IC50 [µM]
49 | O=C(O)[C@@H](Cc1ccccc1)NS(=O)(=O)c1ccc(C#CC2=CCCCC2)s1 [Compound H-14] | 0.153 | –
50 | O=C(O)[C@@H](Cc1ccccc1)NS(=O)(=O)c1ccc(-c2nnn(-c3ccc(Br)cc3)n2)cc1 [Compound I-1] | 0.036 | –
51 | CC(=O)NCCc1ccc(-n2nnc(-c3ccc(S(=O)(=O)N[C@H](Cc4ccccc4)C(=O)O)cc3)n2)cc1 [Compound I-2] | 0.01 | –
52 | NCCc1ccc(-n2nnc(-c3ccc(S(=O)(=O)N[C@H](Cc4ccccc4)C(=O)O)cc3)n2)cc1 [Compound I-3] | 0.029 | –
53 | CS(=O)(=O)OCCc1ccc(-n2nnc(-c3ccc(S(=O)(=O)N[C@H](Cc4ccccc4)C(=O)O)cc3)n2)cc1 [Compound I-4] | 0.0082 | –
54 | CCCCc1ccc(-n2nnc(-c3ccc(S(=O)(=O)N[C@H](Cc4ccccc4)C(=O)O)cc3)n2)cc1 [Compound I-5] | 0.0179 | –
55 | CSc1ccc(-c2nnn(-c3ccc(S(=O)(=O)N[C@H](Cc4ccccc4)C(=O)O)cc3)n2)cc1 [Compound J-1] | 0.0485 | –
56 | O=C(O)[C@H](Cc1ccccc1)NS(=O)(=O)c1ccc(-n2nnc(-c3ccc4ccccc4c3)n2)cc1 [Compound J-3] | > 10 | –
57 | CSc1ccc(-c2ccc(S(=O)(=O)NC(C(=O)O)C(C)C)cc2)s1 (stereo not shown) [Compound K-1] | 0.0202 | –
58 | CCCCc1ccc(-c2ccc(-c3ccc(S(=O)(=O)N[C@@H](C(=O)O)C(C)C)cc3)s2)cc1 [Compound K-2] | 0.0116 | –
59 | Cc1ccc(-c2ccc(-c3ccc(S(=O)(=O)N[C@H](C)C(=O)O)cc3)s2)cc1 [Compound K-3] | 0.095 | –
60 | CSCC[C@@H](NS(=O)(=O)c1ccc(-c2ccc(-c3ccc(C)cc3)s2)cc1)C(=O)O [Compound K-4] | 0.0938 | –
61 | CSc1ccc(-c2ccc(-c3ccc(S(=O)(=O)N[C@@H](C(=O)O)C(C)C)cc3)s2)cc1 [Compound K-5] | 0.00526 | –
62 | Cc1ccc(-c2ccc(-c3ccc(S(=O)(=O)N[C@H](CC(C)C)C(=O)O)cc3)s2)cc1 [Compound K-6] | 0.225 | –
63 | Cc1ccc(-c2ccc(-c3ccc(S(=O)(=O)N[C@@H](C(=O)O)C(C)C)s3)s2)cc1 [Compound L-1] | 0.031 | –
64 | CSc1ccc(-c2ccc(-c3ccc(S(=O)(=O)N[C@@H](C(=O)O)C(C)C)s3)s2)cc1 [Compound L-2] | 0.0147 | –
65 | Cc1ccc(-c2ccc(-c3ccc(S(=O)(=O)N[C@H](Cc4ccccc4)C(=O)O)s3)s2)cc1 [Compound L-3] | 0.109 | –
66 | Cc1ccc(-c2ccc(-c3ccc(S(=O)(=O)NCC(=O)O)s3)s2)cc1 [Compound L-4] | 0.281 | –
67 | Cc1ccc(-c2ccc(-c3ccc(S(=O)(=O)N[C@H](C(=O)O)C(C)C)s3)s2)cc1 [Compound L-5] | 0.134 | –
68 | COc1ccc2cc(-c3nc(-c4ccc(S(=O)(=O)N[C@H](C)C(=O)O)cc4)cs3)ccc2c1 [Compound M-2] | > 10 | –
69 | O=C(O)[C@@H](Cc1ccccc1)NS(=O)(=O)c1ccc(-c2ccc3ccccc3c2)s1 [Compound N-4] | 0.07 | –
70 | O=C(O)[C@@H](Cc1ccccc1)NS(=O)(=O)c1ccc(-c2ncc(-c3ccccc3)s2)s1 [Compound N-7] | 0.114 | –
